Key:
Assay type in all cases: functional, cell-based
[1] = test system: MCF7; test: Antiproliferative activity against human MCF7 cell line by MTT assay
[2] = test system: NCI-H460; test: Antiproliferative activity against human NCI-H460 cell line by MTT assay
[3] = test system: SF-268; test: cells; conditions: Homo sapiens
Description: Antiproliferative activity against human SF-268 cell line by MTT assay

[4] = test system: 13762; test: Antiproliferative activity against rat 13762 cell line

| IC50 [1] [µM] | IC50 [2] [µM] | IC50 [3] [µM] | SMILES | IC50 [4] [µM] |
| --- | --- | --- | --- | --- |
| 50.7 | 71.7 | 45.8 | CCc1ccc[n+](CC(O)(P(=O)([O-])O)P(=O)(O)O)c1 (centres undefined) | – |
| 98.1 | 66.8 | 52.6 | Cc1ccc[n+](CC(O)(P(=O)([O-])O)P(=O)(O)O)c1 (centres undefined) | – |
| 58.1 | 65.8 | 49.3 | O=P([O-])(O)C(O)(C[n+]1cccc(F)c1)P(=O)(O)O (centres undefined) | – |
| 280 | 284 | 243 | O=P([O-])(O)C(C[n+]1ccc(-c2ccccc2-c2ccccc2)cc1)P(=O)(O)O (centres undefined) | – |
| 38.1 | 62 | 44.6 | Cc1ccc[n+](CC(P(=O)([O-])O)P(=O)(O)O)c1 (centres undefined) | – |
| 143 | 92.9 | 109 | O=P([O-])(O)C(C[n+]1cccc(Br)c1)P(=O)(O)O (centres undefined) | – |
| > 10000 | > 10000 | > 10000 | O=P([O-])(O)C(C[n+]1cccc(S(=O)(=O)N2CCCC2)c1)P(=O)(O)O (centres undefined) | – |
| 121 | 58.1 | 58.3 | O=P([O-])(O)C(O)(C[n+]1cccc(Cl)c1)P(=O)(O)O (centres undefined) | – |
| 236 | 208 | 232 | O=P([O-])(O)C(C[n+]1cccc(-c2ccccc2-c2ccccc2)c1)P(=O)(O)O (centres undefined) | – |
| > 10000 | > 10000 | > 10000 | O=P([O-])(O)C(C[n+]1ccc(-c2cccc(-c3ccccc3)c2)cc1)P(=O)(O)O (centres undefined) | – |
| 129 | 142 | 132 | O=P([O-])(O)C(C[n+]1cccc(C(F)(F)F)c1)P(=O)(O)O (centres undefined) | – |
| 21.4 | 14.8 | 13.1 | CCCCc1ccc[n+](CC(O)(P(=O)([O-])O)P(=O)(O)O)c1 (centres undefined) | – |
| > 10000 | > 10000 | > 10000 | O=P([O-])(O)C(C[n+]1ccc2ccccc2c1)P(=O)(O)O (centres undefined) | – |
| 33.5 | 54.5 | 55.7 | O=P([O-])(O)C(O)(C[n+]1cccc(Br)c1)P(=O)(O)O (centres undefined) | – |
| > 10000 | > 10000 | > 10000 | O=P([O-])(O)C(C[n+]1ccc(C(F)(F)F)cc1)P(=O)(O)O (centres undefined) | – |
| 123 | 53.7 | 89.3 | O=P([O-])(O)C(C[n+]1cccc(I)c1)P(=O)(O)O (centres undefined) | – |
| 26.5 | 33 | 24.1 | CCCCc1ccc[n+](CC(P(=O)([O-])O)P(=O)(O)O)c1 (centres undefined) | – |
| 72.3 | 109 | 65.1 | O=P([O-])(O)C(C[n+]1ccccc1)P(=O)(O)O (centres undefined) | – |
| 42.6 | 62 | 44.8 | CCc1ccc[n+](CC(P(=O)([O-])O)P(=O)(O)O)c1 (centres undefined) | – |
| 132 | 59 | 72.7 | O=P([O-])(O)C(C[n+]1cccc(Cl)c1)P(=O)(O)O (centres undefined) | – |
| > 10000 | > 10000 | > 10000 | O=P([O-])(O)C(C[n+]1ccc(-c2ccc(-c3ccccc3)cc2)cc1)P(=O)(O)O (centres undefined) | – |
| 25.1 | 21.5 | 23.2 | O=P([O-])(O)C(C[n+]1cccc(-c2ccc(-c3ccccc3)cc2)c1)P(=O)(O)O (centres undefined) | – |
| 125 | 141 | 133 | O=P([O-])(O)C(C[n+]1ccc(Cc2ccccc2)cc1)P(=O)(O)O (centres undefined) | – |
| 34.6 | 41.3 | 43.6 | O=P([O-])(O)C(C[n+]1cccc(-c2ccccc2)c1)P(=O)(O)O (centres undefined) | – |

The next lines start with the molecule.

| SMILES | IC50 [1] [µM] | IC50 [2] [µM] | IC50 [3] [µM] | IC50 [4] [µM] |
| --- | --- | --- | --- | --- |
| O=P([O-])(O)C(O)(C[n+]1ccc(Cc2ccccc2)cc1)P(=O)(O)O (centres undefined) | 191 | 211 | 111 | – |
| O=P([O-])(O)C(O)(C[n+]1ccccc1)P(=O)(O)O (centres undefined) | 79.4 | 69.9 | 46.8 | – |
| O=P([O-])(O)C(O)(C[n+]1cccc(-c2ccccc2)c1)P(=O)(O)O (centres undefined) | 44.2 | 52.2 | 27.2 | – |
| O=P([O-])(O)C(O)(C[n+]1cccc(-c2ccc(O)cc2)c1)P(=O)(O)O (centres undefined) | 37.2 | 74.4 | 30.7 | – |
| O=P(O)(O)C(Cc1ccc(Br)c(Br)c1)P(=O)(O)O | 533 | 446 | 349 | – |
| O=P([O-])(O)C(O)(C[n+]1cccc(-c2ccc(F)cc2)c1)P(=O)(O)O (centres undefined) | 17.3 | 5.6 | 6.5 | – |
| CC(C)OC(=O)OCOP(=O)(OCOC(=O)OC(C)C)C(Cc1cccc(C#N)c1)P(=O)(OCOC(=O)OC(C)C)OCOC(=O)OC(C)C | 58.6 | 22.6 | 7.77 | – |
| CC(C)(C)C(=O)OCOP(=O)(OCOC(=O)C(C)(C)C)C(Cc1ccc(Br)c(Br)c1)P(=O)(OCOC(=O)C(C)(C)C)OCOC(=O)C(C)(C)C | 0.22 | 0.62 | 0.65 | – |
| CC(C)OC(=O)OCOP(=O)(OCOC(=O)OC(C)C)C(Cc1ccc(Cl)c(Cl)c1)P(=O)(OCOC(=O)OC(C)C)OCOC(=O)OC(C)C | 1.97 | 4.85 | 4.78 | – |
| CC(C)OC(=O)OCOP(=O)(OCOC(=O)OC(C)C)C(Cc1ccc(F)c(F)c1)P(=O)(OCOC(=O)OC(C)C)OCOC(=O)OC(C)C | 15.2 | 20.1 | 28.3 | – |
| Cc1ccc2ccc[n+](CC(O)(P(=O)([O-])O)P(=O)(O)O)c2c1 (centres undefined) | 289 | 270 | 257 | – |
| CN(C)c1cc[n+](CC(O)(P(=O)([O-])O)P(=O)(O)O)cc1 (centres undefined) | > 10000 | > 10000 | > 10000 | – |
| CC(C)(C)C(=O)OCOP(=O)(OCOC(=O)C(C)(C)C)C(Cc1cccc(-c2cccc(-c3ccccc3)c2)c1)P(=O)(OCOC(=O)C(C)(C)C)OCOC(=O)C(C)(C)C | 2.62 | 1.64 | 2.38 | – |
| N#Cc1cccc(CC(P(=O)(O)O)P(=O)(O)O)c1 | > 1000 | > 1000 | > 1000 | – |
| CC(C)(C)C(=O)OCOP(=O)(OCOC(=O)C(C)(C)C)C(CNc1ccccn1)P(=O)(OCOC(=O)C(C)(C)C)OCOC(=O)C(C)(C)C | 6.44 | 5.95 | 7.89 | – |
| O=P(O)(O)C(O)(CCc1cccc(-c2ccccc2-c2ccccc2)c1)P(=O)(O)O | 146 | 133 | 143 | – |
| O=P(O)(O)C(O)(Cc1cccc(-c2cccc(-c3ccccc3)c2)c1)P(=O)(O)O | 152 | 140 | 130 | – |
| O=P([O-])(O)C(O)(C[n+]1ccc(-c2ccncc2)cc1)P(=O)(O)O (centres undefined) | > 10000 | > 10000 | > 10000 | – |
| O=P(O)(O)C(O)(CCc1cccc(-c2ccc(-c3ccccc3)cc2)c1)P(=O)(O)O | 196 | 132 | 175 | – |
| O=P(O)(O)C(CNCc1cccc(-c2ccccc2)c1)P(=O)(O)O | 46 | 5.73 | 6.18 | – |

| SMILES | IC50 [1] [µM] | IC50 [2] [µM] | IC50 [3] [µM] | IC50 [4] [µM] |
| --- | --- | --- | --- | --- |
| O=P(O)(O)C(O)(c1cccc(-c2cccc(-c3ccccc3)c2)c1)P(=O)(O)O | 310 | 285 | 303 | – |
| COc1cc[n+](CC(O)(P(=O)([O-])O)P(=O)(O)O)cc1 (centres undefined) | 409 | 644 | 436 | – |
| O=P(O)(O)C(O)(Cc1cccc(-c2ccccc2-c2ccccc2)c1)P(=O)(O)O | 92.7 | 86.1 | 58 | – |
| O=P(O)(O)C(O)(Cc1ccc(-c2ccccc2-c2ccccc2)cc1)P(=O)(O)O | 1060 | 329 | 475 | – |
| O=P(O)(O)C(CNc1ccncc1)P(=O)(O)O | 22.7 | 12.6 | 14.4 | – |
| O=P(O)(O)C(CNc1ccccn1)P(=O)(O)O | 223 | 63.7 | 147 | – |
| O=P([O-])(O)C(O)(C[n+]1cccc(Cc2ccccc2)c1)P(=O)(O)O (centres undefined) | 69.2 | 18.5 | 67 | – |
| CC(C)(C)C(=O)OCOP(=O)(OCOC(=O)C(C)(C)C)C(Cc1ccc(Cl)c(Cl)c1)P(=O)(OCOC(=O)C(C)(C)C)OCOC(=O)C(C)(C)C | 0.34 | 2.7 | 1.43 | – |
| O=P([O-])(O)C(O)(C[n+]1cccc(-c2ccc(C(F)(F)F)cc2)c1)P(=O)(O)O (centres undefined) | 14.5 | 23.2 | 10.4 | – |
| Cc1ccc2c(ccc[n+]2CC(O)(P(=O)([O-])O)P(=O)(O)O)c1 (centres undefined) | 260 | 279 | 261 | – |
| O=P(O)(O)C(O)(CCc1cccc(-c2cccc(-c3ccccc3)c2)c1)P(=O)(O)O | 43.9 | 46.9 | 44.7 | – |
| O=P(O)(O)C(O)(Cc1ccc(-c2cccc(-c3ccccc3)c2)cc1)P(=O)(O)O | 412 | 413 | 620 | – |
| O=P([O-])(O)C(O)(C[n+]1ccc2ccccc2c1)P(=O)(O)O (centres undefined) | 288 | 297 | 260 | – |
| O=P([O-])(O)C(O)(C[n+]1ccc(-c2ccccc2)cc1)P(=O)(O)O (centres undefined) | 304 | 312 | 290 | – |
| O=P(O)(O)C(Nc1ncccc1OCc1ccccc1)P(=O)(O)O | 339 | 3210 | 399 | – |
| CCC(C)CNC(P(=O)(O)O)P(=O)(O)O (centres undefined) | 447 | 469 | 301 | – |
| CN(CCCCc1ccccc1)CCC(O)(P(=O)(O)O)P(=O)(O)O | 82.5 | 22.9 | 49.2 | – |
| NCCC(O)(P(=O)(O)O)P(=O)(O)O [PAMIDRONIC ACID] | 141 | 71.8 | 408 | 33.6 |
| O=P(O)(O)C(O)(Cc1cccnc1)P(=O)(O)O [RISEDRONIC ACID] | 35.7 | 43.7 | 23.3 | > 40 |
| O=P(O)(O)C(O)(Cn1ccnc1)P(=O)(O)O [ZOLEDRONIC ACID] | 27.7 | 11.7 | 14.3 | – |
